Measured values from ChEMBL document CHEMBL4765454, “Betulinic acid derived amides are highly cytotoxic, apoptotic and selective” (Eur J Med Chem, 2020).

Assays:
HT-29 = assay: Cytotoxicity against human HT-29 cells assessed as reduction in cell viability incubated for 72 hrs by SRB assay; type: functional, cell-based
NIH3T3 = assay: Cytotoxicity against mouse NIH3T3 cells assessed as reduction in cell viability incubated for 72 hrs by SRB assay; type: cell-based
A-375 = assay: Cytotoxicity against human A-375 cells assessed as reduction in cell viability incubated for 72 hrs by SRB assay; type: functional, cell-based
FaDu = assay: Cytotoxicity against human FaDu cells assessed as reduction in cell viability incubated for 72 hrs by SRB assay; type: functional, cell-based
[1] = Selectivity ratio of EC50 for mouse NIH3T3 cells to EC50 for human A375 cells; type: toxicity; conditions: NIH3T3 cells versus A375 cells, read-out: Ratio EC50
[2] = Selectivity ratio of EC50 for mouse NIH3T3 cells to EC50 for human HT-29 cells; type: toxicity; conditions: NIH3T3 cells versus HT-29 cells, read-out: Ratio EC50
[3] = Selectivity ratio of EC50 for mouse NIH3T3 cells to EC50 for human MCF7 cells; type: toxicity; conditions: NIH3T3 cells versus MCF7 cells, read-out: Ratio EC50
[4] = Selectivity ratio of EC50 for mouse NIH3T3 cells to EC50 for human A2780 cells; type: toxicity; conditions: NIH3T3 cells versus A2780 cells, read-out: Ratio EC50
[5] = Selectivity ratio of EC50 for mouse NIH3T3 cells to EC50 for human FaDu cells
MCF7 = assay: Cytotoxicity against human MCF7 cells assessed as reduction in cell viability incubated for 72 hrs by SRB assay; type: functional, cell-based
A2780 = assay: Cytotoxicity against human A2780 cells assessed as reduction in cell viability incubated for 72 hrs by SRB assay; type: functional, cell-based
[6] = Homo sapiens, HT-29, 72 h, read-out: EC50
[7] = Mus musculus, NIH3T3, 72 h, read-out: EC50
[8] = Homo sapiens, A-375, 72 h, read-out: EC50
[9] = Homo sapiens, FaDu, 72 h, read-out: EC50
[10] = Homo sapiens, MCF7, 72 h, read-out: EC50
[11] = Homo sapiens, A2780, 72 h, read-out: EC50

Row | SMILES | EC50 (HT-29; [6]) | EC50 (NIH3T3; [7]) | EC50 (A-375; [8]) | EC50 (FaDu; [9]) | selectivity ratio [1] | selectivity ratio [2] | selectivity ratio [3] | selectivity ratio [4] | Ratio EC50 [5] | EC50 (MCF7; [10]) | EC50 (A2780; [11]) | EC50 (A-375; a-375) | EC50 (HT-29; ht-29) | EC50 (MCF7; mcf7) | EC50 (A2780; a2780) | EC50 (FaDu; fadu) | EC50 (NIH3T3; nih3t3)
1 | COc1cccc2c1C(=O)c1c(O)c3c(c(O)c1C2=O)C[C@@](O)(C(=O)CO)C[C@@H]3O[C@H]1C[C@H](N)[C@H](O)[C@H](C)O1 [DOXORUBICIN] | > 30 µM | 1.3 µM |  |  |  |  |  |  |  |  |  |  |  |  |  |  | 
2 | C=C(C)[C@@H]1CC[C@]2(C(=O)O)CC[C@]3(C)[C@H](CC[C@@H]4[C@@]5(C)CC[C@H](OC(C)=O)C(C)(C)[C@@H]5CC[C@]43C)[C@@H]12 | 21.3 µM | > 30 µM | 19.2 µM | 7.2 µM | 1.6 | 1.4 | 2.7 | 1.6 | 4.2 |  |  |  |  |  |  |  | 
3 | C=C(C)[C@@H]1CC[C@]2(C(=O)Nc3cccc4ncccc34)CC[C@]3(C)[C@H](CC[C@@H]4[C@@]5(C)CC[C@H](OC(C)=O)C(C)(C)[C@@H]5CC[C@]43C)[C@@H]12 | > 30 µM | > 30 µM | 3.05 µM | 5.18 µM |  | 1 | 2.5 | 5.9 | 5.8 | 12.1 µM | 5.08 µM |  |  |  |  |  | 
4 | CC(=O)[C@@H]1CC[C@]2(C(=O)O)CC[C@]3(C)[C@H](CC[C@@H]4[C@@]5(C)CCC(=O)C(C)(C)[C@@H]5CC[C@]43C)[C@@H]12 | > 30 µM | > 30 µM | > 30 µM | > 30 µM |  |  |  |  |  | > 30 µM | > 30 µM |  |  |  |  |  | 
5 | C=C(C)[C@@H]1CC[C@]2(C(=O)NCc3ccccc3)CC[C@]3(C)[C@H](CC[C@@H]4[C@@]5(C)CC[C@H](OC(C)=O)C(C)(C)[C@@H]5CC[C@]43C)[C@@H]12 | > 30 µM | > 30 µM | 4.05 µM | 9.59 µM |  | 1 | 1.1 | 4.8 | 3.1 | 26.8 µM | 6.29 µM |  |  |  |  |  | 
6 | CC(=O)O[C@H]1C[C@]2(C)[C@H]3CC[C@@H]4[C@H]5[C@H](C(C)=O)CC[C@]5(C(=O)NCc5ccccc5)CC[C@@]4(C)[C@]3(C)CC[C@H]2C(C)(C)[C@H]1OC(C)=O | 7.22 µM | > 30 µM | 2.9 µM | 5.57 µM |  | 4.2 | 5.8 | 12.7 | 5.4 | 5.2 µM | 2.36 µM |  |  |  |  |  | 
7 | CC(=O)[C@@H]1CC[C@]2(C(=O)O)CC[C@]3(C)[C@H](CC[C@@H]4[C@@]5(C)CC[C@H](O)C(C)(C)[C@@H]5CC[C@]43C)[C@@H]12 [PLATANIC ACID] | > 30 µM | > 30 µM | > 30 µM | > 30 µM |  |  |  |  |  | > 30 µM | > 30 µM |  |  |  |  |  | 
8 | CC(=O)O[C@H]1C[C@]2(C)[C@H]3CC[C@@H]4[C@H]5[C@H](C(C)=O)CC[C@]5(C(=O)Nc5cccc6ncccc56)CC[C@@]4(C)[C@]3(C)CC[C@H]2C(C)(C)[C@H]1OC(C)=O |  |  |  |  |  |  |  |  |  |  |  | Nd(Insoluble) | Nd(Insoluble) | Nd(Insoluble) | Nd(Insoluble) | Nd(Insoluble) | Nd(Insoluble)
9 | C=C(C)[C@@H]1CC[C@]2(C(=O)O)CC[C@]3(C)[C@H](CC[C@@H]4[C@@]5(C)CC[C@H](O)C(C)(C)[C@@H]5CC[C@]43C)[C@@H]12 [BETULINIC ACID] | > 30 µM | > 30 µM | > 30 µM | > 30 µM |  |  |  |  |  | > 30 µM | > 30 µM |  |  |  |  |  | 
10 | CC(=O)O[C@H]1CC[C@]2(C)[C@H]3CC[C@@H]4[C@H]5[C@H](C(C)=O)CC[C@]5(C(=O)O)CC[C@@]4(C)[C@]3(C)CC[C@H]2C1(C)C | > 30 µM | > 30 µM | > 30 µM | > 30 µM |  |  |  |  |  | > 30 µM | > 30 µM |  |  |  |  |  | 
11 | CC(=O)[C@@H]1CC[C@]2(C(=O)O)CC[C@]3(C)[C@H](CC[C@@H]4[C@@]5(C)C[C@H](O)[C@H](O)C(C)(C)[C@@H]5CC[C@]43C)[C@@H]12 | > 30 µM | > 30 µM | > 30 µM | > 30 µM |  |  |  |  |  | > 30 µM | > 30 µM |  |  |  |  |  | 
12 | C=C(C)[C@@H]1CC[C@]2(C(=O)Nc3cncc4ccccc34)CC[C@]3(C)[C@H](CC[C@@H]4[C@@]5(C)C[C@H](OC(C)=O)[C@H](OC(C)=O)C(C)(C)[C@@H]5CC[C@]43C)[C@@H]12 | > 15 µM | > 30 µM | 3.34 µM | 4.02 µM |  | 2 | 4.1 | 6.3 | 7.5 | 7.33 µM | 4.76 µM |  |  |  |  |  | 
13 | CC(=O)O[C@H]1CC[C@]2(C)[C@H]3CC[C@@H]4[C@H]5[C@H](C(C)=O)CC[C@]5(C(=O)Nc5cccc6ncccc56)CC[C@@]4(C)[C@]3(C)CC[C@H]2C1(C)C | > 30 µM | > 30 µM | 4.6 µM | 6.42 µM |  | 1 | 4.3 | 5.6 | 4.7 | 7.06 µM | 5.4 µM |  |  |  |  |  | 
14 | CC(=O)O[C@H]1CC[C@]2(C)[C@H]3CC[C@@H]4[C@H]5[C@H](C(C)=O)CC[C@]5(C(=O)NCc5ccccc5)CC[C@@]4(C)[C@]3(C)CC[C@H]2C1(C)C |  |  |  |  |  |  |  |  |  |  |  | Nd(Insoluble) | Nd(Insoluble) | Nd(Insoluble) | Nd(Insoluble) | Nd(Insoluble) | Nd(Insoluble)
15 | C=C(C)[C@@H]1CC[C@]2(C(=O)O)CC[C@]3(C)[C@H](CC[C@@H]4[C@@]5(C)CCC(=O)C(C)(C)[C@@H]5CC[C@]43C)[C@@H]12 [BETUNOLIC ACID] | 18.5 µM | 19.4 µM | 14.3 µM | 17.4 µM |  |  |  |  |  | 12 µM | 4.7 µM |  |  |  |  |  | 
16 | CC(=O)O[C@H]1CC[C@]2(C)[C@H]3CC[C@@H]4[C@H]5[C@H](C(C)=O)CC[C@]5(C(=O)Nc5cncc6ccccc56)CC[C@@]4(C)[C@]3(C)CC[C@H]2C1(C)C | > 30 µM | > 30 µM | 5.66 µM | 7.67 µM |  | 1 | 3.2 | 3.8 | 3.9 | 9.34 µM | 7.84 µM |  |  |  |  |  | 
17 | CC(=O)[C@@H]1CC[C@]2(C(=O)O)CC[C@]3(C)[C@H](CC[C@@H]4[C@@]5(C)C=C(O)C(=O)C(C)(C)[C@@H]5CC[C@]43C)[C@@H]12 | > 30 µM | > 30 µM | > 30 µM | > 30 µM |  |  |  |  |  | 24.8 µM | 20.6 µM |  |  |  |  |  | 
18 | CC(=O)O[C@H]1C[C@]2(C)[C@H]3CC[C@@H]4[C@H]5[C@H](C(C)=O)CC[C@]5(C(=O)Nc5cncc6ccccc56)CC[C@@]4(C)[C@]3(C)CC[C@H]2C(C)(C)[C@H]1OC(C)=O | 18.4 µM | > 30 µM | 4.88 µM | 6.41 µM |  | 1.6 | 4.3 | 4.9 | 4.7 | 6.96 µM | 6.15 µM |  |  |  |  |  | 
